Measurements from patent publication US11192871B2, “5-hydroxytryptamine receptor 7 activity modulators and their method of use” (Temple University-Of The Commonwealth System of Higher …, priority 2014, dated 2021).

Biological target: Serotonin 5HT7 receptors (Homo sapiens (Human), UniProt P34969)
Assay: Radiolabel Binding Studies for Serotonin 5HT7 receptors
Conditions: for inhibition at 10 µM: read-out: 5-HT7 % inhib @ 10 uM; for IC50: radioligand competition binding, membranes of cells expressing recombinant 5HT7 receptors
Procedure: Radiolabel Binding Studies for Scrotonin 5HT7 Receptors, Method 1:
Eleven dilutions (5× assay concentration) of the compound of the disclosure and chlorpromazine are prepared in the Assay Buffer by serial dilution to yield final corresponding assay concentrations ranging from 10 pM to 10 μM.
(§1) A stock concentration of 5 nM [^3H]LSD (lysergic acid diethyl amide) is prepared in 50 mM Tris-HCl, 10 mM MgCl2, 1 mM EDTA, pH 7.4 (Assay Buffer). Aliquots (50 μl) of radioligand are dispensed into the wells of a 96-well plate containing 100 μl of Assay Buffer. Duplicate 50-μl aliquots of the compound of the disclosure test and chlorpromazine positive control reference compound serial dilutions are added.
(§2) Membrane fractions of cells expressing recombinant 5HT7 receptors (50 μL) are dispensed into each well. The membranes are prepared from stably transfected cell lines expressing 5HT7 receptors cultured on 10-cm plates by harvesting PBS-rinsed monolayers, resuspending and lysing in chilled, hypotonic 50 mM Tris-HCl, pH 7.4, centrifuging at 20,000×g, decanting the supernatant and storing at −80° C.; the membrane preparations are resuspended in 3 ml of chilled Assay Buffer and homogenized by several passages through a 26 gauge needle before using in the assay.
The 250-μl reactions are incubated at room temperature for 1.5 hours, then harvested by rapid filtration onto 0.3% polyethyleneimine-treated, 96-well filter mats using a 96-well Filtermate harvester. Four rapid 500-μl washes are performed with chilled Assay Buffer to reduce non-specific binding. The filter mats are dried, then scintillant is added to the filters and the radioactivity retained on the filters is counted in a Microbeta scintillation counter.
Raw data (dpm) representing total radioligand binding (i.e., specific+non-specific binding) are plotted as a function of the logarithm of the molar concentration of the competitor (i.e., test or reference compound).
Radiolabel Binding Studies for Serotonin 5-HT7 Receptors, Method 2:
as §1, with “[^3H]-5-Hydroxytryptamine ([^3H]-5HT)” for “[^3H]LSD (lysergic acid diethyl amide)”
as §2, with “guage” for “gauge”

SMILES	inhibition at 10 µM	IC50	5-HT7 % inhib @ 10 uM (single concentration of 10 uM, percent inhibition of radioligand binding)
O=C1OC(CCN2CCN(c3ccc4[nH]ccc4c3)CC2)CC12CCCC2 (stereo not shown) [Entry 160147]	99.6%	–	–
O=C1OC(CCN2CCN(c3ccnc(Cl)c3)CC2)CC12CCCCC2 (stereo not shown) [Entry 160153]	–	–	58.2%
CCC1(CC)CC(CCN2CCN(c3ccc4nc(C)[nH]c4c3)CC2)OC1=O (stereo not shown) [Entry 230069]	15.9%	1000 nM	–
CCC1(CC)CC(CCN2CCN(c3ccc4nc(C(F)(F)F)[nH]c4c3)CC2)OC1=O (stereo not shown) [Entry 230068]	–	1000 nM	–

The next lines start with results.

inhibition at 10 µM	IC50	SMILES	5-HT7 % inhib @ 10 uM (single concentration of 10 uM, percent inhibition of radioligand binding)
–	1000 nM	COc1ccc(N2CCN(CC[C@@H]3CC(C)(C)C(=O)O3)CC2)cc1 [Entry 230039]	–
90%	124 nM	COc1ccnc(N2CCN(CCC3CC4(CCCC4)C(=O)O3)CC2)c1 (stereo not shown) [Entry 230009]	–
–	1000 nM	CCC1(CC)CC(CCCN2CCN(c3ccc(OC)cc3)CC2)OC1=O (stereo not shown) [Entry 230060]	–
–	1000 nM	COc1ccc(N2CCN(CC[C@H]3CC(C)(C)C(=O)O3)CC2)cc1 [Entry 230046]	–
